The record followed here is publication PMC8000448, “Inhibitory Effects of Schisandra Lignans on Cytochrome P450s and Uridine 5′-Diphospho-Glucuronosyl Transferases in Human Liver Microsomes” (Pharmaceutics, 2021).

One data set addresses T1, UGT1A1 (Homo sapiens, UniProt P22309).
T1 construct: pooled HLMs (0.25 mg/mL); tissue XenoTech H2630; host or cells: pooled human liver microsomes, mixed gender
T1 sequence (P22309 26-533): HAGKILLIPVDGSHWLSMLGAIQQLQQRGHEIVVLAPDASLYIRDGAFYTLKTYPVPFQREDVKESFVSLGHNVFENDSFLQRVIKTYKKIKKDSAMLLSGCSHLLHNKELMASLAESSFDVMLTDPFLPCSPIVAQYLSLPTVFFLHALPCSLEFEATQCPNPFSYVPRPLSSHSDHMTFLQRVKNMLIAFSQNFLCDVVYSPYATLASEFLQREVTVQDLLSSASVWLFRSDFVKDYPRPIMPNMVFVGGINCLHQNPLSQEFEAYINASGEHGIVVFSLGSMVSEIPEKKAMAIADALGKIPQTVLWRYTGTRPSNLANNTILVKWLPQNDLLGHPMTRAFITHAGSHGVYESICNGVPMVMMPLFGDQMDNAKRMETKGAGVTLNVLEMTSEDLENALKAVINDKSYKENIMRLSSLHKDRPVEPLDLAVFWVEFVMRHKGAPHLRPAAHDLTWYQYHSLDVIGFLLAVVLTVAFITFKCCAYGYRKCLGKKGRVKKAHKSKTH
Nature of the data set: UGT1A1 inhibition in HLMs (SN-38). The note with it: average in triplicate, read-out: IC50, UGT 1A1. Type of data set: in vitro ADME. As to the method: (§1) The inhibitory potential of six lignans on six UGT activities was evaluated using the previously developed cocktail method with slight modifications. […] These substrates are known to be selective for each UGT isoforms.

Another data set deals with T2, CYP2E1 (Homo sapiens, UniProt P05181).
T2 construct: pooled HLMs (0.25 mg/mL); tissue XenoTech H2630; host or cells: pooled human liver microsomes, mixed gender
T2 sequence (P05181 whole entry): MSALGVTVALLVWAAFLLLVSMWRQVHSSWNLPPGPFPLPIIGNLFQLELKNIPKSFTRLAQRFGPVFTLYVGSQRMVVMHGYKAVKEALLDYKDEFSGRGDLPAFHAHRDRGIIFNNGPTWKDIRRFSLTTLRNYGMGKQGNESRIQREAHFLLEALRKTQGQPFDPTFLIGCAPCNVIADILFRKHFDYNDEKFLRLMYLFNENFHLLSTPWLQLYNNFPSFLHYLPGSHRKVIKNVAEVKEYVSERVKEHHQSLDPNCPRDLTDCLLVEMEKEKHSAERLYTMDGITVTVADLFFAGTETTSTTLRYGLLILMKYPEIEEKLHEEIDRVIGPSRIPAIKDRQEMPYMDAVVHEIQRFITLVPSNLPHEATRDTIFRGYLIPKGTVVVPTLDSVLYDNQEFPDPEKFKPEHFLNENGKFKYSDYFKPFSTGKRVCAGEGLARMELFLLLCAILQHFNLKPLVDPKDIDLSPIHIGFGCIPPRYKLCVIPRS
The data set is described as follows: CYP2E1 inhibition in HLMs (chlorzoxazone). Type of data set: in vitro ADME. The protocol:
(§2) Lignans were first dissolved in methanol. […] All microsomal incubations were performed in triplicate.

The next data set deals with CYP2D6 (Homo sapiens, UniProt P10635). Nature of the data set: CYP2D6 inhibition in HLMs (dextromethorphan).
Chain of CYP2D6 (P10635 whole entry): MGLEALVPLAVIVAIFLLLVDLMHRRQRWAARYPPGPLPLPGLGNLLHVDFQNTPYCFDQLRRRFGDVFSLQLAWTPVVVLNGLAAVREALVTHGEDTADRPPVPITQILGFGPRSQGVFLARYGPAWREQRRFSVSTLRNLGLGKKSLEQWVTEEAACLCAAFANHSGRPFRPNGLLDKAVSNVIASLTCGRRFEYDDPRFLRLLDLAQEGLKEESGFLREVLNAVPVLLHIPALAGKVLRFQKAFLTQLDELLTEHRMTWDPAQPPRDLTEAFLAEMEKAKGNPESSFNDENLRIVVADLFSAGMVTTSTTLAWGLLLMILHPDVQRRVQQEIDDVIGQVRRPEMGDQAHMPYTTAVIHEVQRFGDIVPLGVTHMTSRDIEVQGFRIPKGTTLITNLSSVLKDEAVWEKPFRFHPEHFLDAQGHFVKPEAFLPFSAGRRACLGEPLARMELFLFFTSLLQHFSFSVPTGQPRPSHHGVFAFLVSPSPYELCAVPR
In the next data set the target is T3, UGT1A9 (Homo sapiens, UniProt O60656).
T3 construct: pooled HLMs (0.25 mg/mL); tissue XenoTech H2630; host or cells: pooled human liver microsomes, mixed gender
T3 sequence (O60656 26-530): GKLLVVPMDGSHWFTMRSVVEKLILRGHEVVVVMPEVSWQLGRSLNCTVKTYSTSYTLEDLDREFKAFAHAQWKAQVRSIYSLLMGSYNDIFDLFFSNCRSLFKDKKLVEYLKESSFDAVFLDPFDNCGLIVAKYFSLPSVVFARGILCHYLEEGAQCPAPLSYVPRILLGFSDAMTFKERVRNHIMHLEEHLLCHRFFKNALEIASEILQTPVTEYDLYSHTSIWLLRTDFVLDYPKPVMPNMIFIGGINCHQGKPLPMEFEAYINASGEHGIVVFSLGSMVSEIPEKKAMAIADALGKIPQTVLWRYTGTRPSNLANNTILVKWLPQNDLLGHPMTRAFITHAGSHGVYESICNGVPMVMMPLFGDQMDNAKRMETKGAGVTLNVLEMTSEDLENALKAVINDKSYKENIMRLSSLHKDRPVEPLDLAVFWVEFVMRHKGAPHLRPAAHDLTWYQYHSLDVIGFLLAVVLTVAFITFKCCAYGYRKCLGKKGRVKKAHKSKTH
Nature of the data set: UGT1A9 inhibition in HLMs (mycophenolic acid). Type of data set: in vitro ADME. Particulars: average in triplicate, read-out: IC50, UGT 1A9. As to the method:
as §1

In the next data set the target is T4, CYP2B6 (Homo sapiens, UniProt P20813).
T4 construct: pooled HLMs (0.25 mg/mL); tissue XenoTech H2630; host or cells: pooled human liver microsomes, mixed gender
T4 sequence (P20813 1-491): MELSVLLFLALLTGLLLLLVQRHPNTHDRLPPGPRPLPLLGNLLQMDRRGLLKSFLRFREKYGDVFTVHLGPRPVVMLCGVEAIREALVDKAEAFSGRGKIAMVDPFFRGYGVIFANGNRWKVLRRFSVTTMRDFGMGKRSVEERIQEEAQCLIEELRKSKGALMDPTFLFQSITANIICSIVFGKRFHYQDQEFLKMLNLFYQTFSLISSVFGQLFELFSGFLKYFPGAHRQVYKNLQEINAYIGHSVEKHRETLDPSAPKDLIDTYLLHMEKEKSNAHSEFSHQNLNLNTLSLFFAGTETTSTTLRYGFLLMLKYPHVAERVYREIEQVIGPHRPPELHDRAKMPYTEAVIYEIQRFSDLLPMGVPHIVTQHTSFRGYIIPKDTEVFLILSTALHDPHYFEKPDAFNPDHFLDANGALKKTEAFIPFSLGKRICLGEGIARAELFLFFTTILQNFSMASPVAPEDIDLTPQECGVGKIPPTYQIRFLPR
Nature of the data set: CYP2B6 inhibition in HLMs (bupropion). The class given is in vitro ADME. The protocol:
as §2

The next data set has as its target T5, CYP1A2 (Homo sapiens, UniProt P05177).
T5 construct: pooled HLMs (0.25 mg/mL); tissue XenoTech H2630; host or cells: pooled human liver microsomes, mixed gender
T5 sequence (P05177 1-516): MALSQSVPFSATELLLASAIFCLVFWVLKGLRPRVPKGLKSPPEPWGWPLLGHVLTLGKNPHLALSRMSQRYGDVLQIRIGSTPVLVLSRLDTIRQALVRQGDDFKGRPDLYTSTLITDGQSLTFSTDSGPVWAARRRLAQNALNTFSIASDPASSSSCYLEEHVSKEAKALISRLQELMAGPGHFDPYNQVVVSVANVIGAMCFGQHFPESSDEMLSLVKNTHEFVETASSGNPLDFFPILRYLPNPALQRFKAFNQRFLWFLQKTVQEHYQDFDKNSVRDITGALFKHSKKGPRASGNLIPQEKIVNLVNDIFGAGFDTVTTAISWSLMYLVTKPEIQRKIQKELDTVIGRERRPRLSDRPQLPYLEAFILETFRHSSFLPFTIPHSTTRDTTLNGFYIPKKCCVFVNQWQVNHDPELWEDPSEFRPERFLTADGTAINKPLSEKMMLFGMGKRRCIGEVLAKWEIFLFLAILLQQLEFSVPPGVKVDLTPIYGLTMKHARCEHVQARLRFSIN
The data set is described as follows: CYP1A2 inhibition in HLMs (phenacetin, cocktail, IC50 and IC50 shift). The class given is in vitro ADME. As to the method: as §2

For a further data set, the target named is CYP2C19 (Homo sapiens, UniProt P33261). Nature of the data set: CYP2C19 inhibition in HLMs (S-mephenytoin).
Chain of CYP2C19 (P33261 whole entry): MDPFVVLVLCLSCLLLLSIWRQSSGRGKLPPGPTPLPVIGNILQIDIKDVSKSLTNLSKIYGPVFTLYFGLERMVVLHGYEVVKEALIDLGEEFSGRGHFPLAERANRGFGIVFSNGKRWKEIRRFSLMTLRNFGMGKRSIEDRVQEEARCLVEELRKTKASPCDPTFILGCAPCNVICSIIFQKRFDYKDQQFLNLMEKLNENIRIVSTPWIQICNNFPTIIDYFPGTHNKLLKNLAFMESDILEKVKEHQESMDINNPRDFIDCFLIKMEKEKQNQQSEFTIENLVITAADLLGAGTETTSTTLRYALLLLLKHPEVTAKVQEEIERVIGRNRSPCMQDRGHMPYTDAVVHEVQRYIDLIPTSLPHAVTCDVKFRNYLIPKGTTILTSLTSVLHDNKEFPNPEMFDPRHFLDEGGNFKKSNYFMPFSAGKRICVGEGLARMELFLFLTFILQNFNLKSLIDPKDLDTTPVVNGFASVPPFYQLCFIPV
Where [1] appears, read: 30 min pre-incubation with NADPH generating system, read-out: IC50 TDI, CYP2E1.
[2] abbreviates: reversible inhibition, read-out: IC50 RI, CYP2E1.
The mark [3] stands for this setting: IC50 TDI, 30 min pre-incubation with NADPH generating system.
The mark [4] stands for this setting: 30 min pre-incubation with NADPH generating system, read-out: IC50 TDI, CYP2B6.
Where [5] appears, read: reversible inhibition, read-out: IC50 RI, CYP2B6.
Where [6] appears, read: HLMs, 30 min pre-incubation with NADPH generating system, read-out: IC50 TDI, CYP1A2.
The mark [7] stands for this setting: HLMs, reversible inhibition, no 30 min NADPH pre-incubation, read-out: IC50 RI, CYP1A2.

Molecules are shown by their SMILES. Read-outs that look alike come from different tables or passages of the source.

Procedure for CYP2C19: (§3) Lignans were first dissolved in methanol. The final organic solvent concentration in the incubation media was ≤1.0% (v/v). The microsomal incubation was conducted using two cocktail sets containing non-interactive substrates: set A containing phenacetin, bupropion, amodiaquine, diclofenac, S-mephenytoin, and dextromethorphan as substrates for CYP1A2, CYP2B6, CYP2C8, CYP2C9, CYP2C19, and CYP2D6, respectively; and set B containing coumarin and chlorzoxazone as substrates for CYP2A6 and CYP2E1, and midazolam, nifedipine, and testosterone as substrates for CYP3A4 (Table 1). These substrates are known to be selective for each P450 isoforms. Incubation mixtures containing potassium phosphate buffer (0.1 M, pH 7.4), pooled HLMs (0.25 mg/mL), P450 probe substrate cocktails, and lignan (0~50 μM) were pre-incubated at 37 °C (5 min). Following pre-incubation, an NADPH generating system (1.3 mM NADP^+, 3.3 mM G6P, 1 unit/mL G6PDH, and 3.3 mM MgCl2) was added to initiate the reaction, and further incubated for 10 min. The reaction was quenched with 50 μL of cold acetonitrile containing internal standard (IS; 7 nM trimipramine). After centrifugation at 14,000 rpm (5 min at 4 °C), aliquots of supernatants were filtered through a 0.2 μm membrane filter and were measured by liquid chromatography-tandem mass spectrometry (LC-MS/MS). All microsomal incubations were performed in triplicate.
Procedure for CYP2D6: as §3

As to `COc1cc2c(c(OC)c1OC)-c1c(cc3c(c1OC)OCO3)C[C@H](C)[C@](C)(O)[C@H]2OC(=O)c1ccccc1` [Gomisin C, gomisin C], the concentration for half-maximal inhibition (IC50) is 24 µM on UGT1A1; 24.4 µM on CYP2E1 (setting [1]); over 50 µM at CYP2E1 (setting [2]); over 50 µM at CYP2D6 (IC50 RI, reversible inhibition); over 50 µM on CYP2D6 (setting [3]); over 50 µM on UGT1A9. The 50% inhibitory concentration (IC50) at CYP2B6 (setting [4]) is over 50 µM; on CYP2B6 (setting [5]) it was 33.1 µM; at CYP1A2 (setting [6]), over 50 µM; on CYP1A2 (setting [7]), over 50 µM; at CYP2C19 (IC50 RI, reversible inhibition), 16.3 µM; at CYP2C19 (setting [3]), 20.4 µM.
As for `COc1cc2c(c(OC)c1OC)-c1c(cc3c(c1OC)OCO3)C[C@H](C)[C@H](C)C2` [Gomisin N, gomisin N], the 50% inhibitory concentration (IC50) at UGT1A1 was over 50 µM; on CYP2E1 (setting [1]), 23.6 µM; on CYP2E1 (setting [2]), over 50 µM; at CYP2D6 (IC50 RI, reversible inhibition), 42 µM; against CYP2D6 (setting [3]) it was over 50 µM; at UGT1A9 it was over 50 µM. In addition, the half-maximal inhibitory concentration (IC50) at CYP2B6 (setting [4]) is over 50 µM; on CYP2B6 (setting [5]), 38.3 µM; at CYP1A2 (setting [6]), over 50 µM; at CYP1A2 (setting [7]), over 50 µM; against CYP2C19 (IC50 RI, reversible inhibition), 10.4 µM; against CYP2C19 (setting [3]) it was 3.5 µM. For the same compound, the IC50 shift at 10 min at CYP2E1 (human, pooled human liver microsomes, pH 7.4, probe chlorzoxazone (cocktail set B), RI/TDI fold shift) is over 2.1.
On to `COc1cc2c(c(OC)c1OC)-c1c(cc(OC)c(OC)c1OC)C[C@](C)(O)[C@@H](C)C2` [Schisandrin, schisandrin], for which the IC50 at UGT1A1 is over 50 µM; on CYP2E1 (setting [1]), 36 µM; at CYP2E1 (setting [2]) it was 4.2 µM; against CYP2D6 (IC50 RI, reversible inhibition), 40.2 µM; on CYP2D6 (setting [3]) it was over 50 µM; at UGT1A9, over 50 µM. The IC50 on CYP2B6 (setting [4]) was over 50 µM; on CYP2B6 (setting [5]) it was 14.7 µM; at CYP1A2 (IC50 RI, CYP1A2, HLMs, reversible inhibition, no 30 min NADPH pre-incubation) it was 4 µM; on CYP1A2 (IC50 TDI, CYP1A2, HLMs, 30 min pre-incubation with NADPH generating system), over 50 µM; against CYP2C19 (IC50 RI, reversible inhibition), 5.3 µM; on CYP2C19 (setting [3]), 46.1 µM.
As for `COc1c2c(cc3c1-c1c(cc4c(c1OC)OCO4)C[C@H](C)[C@H](C)C3)OCO2` [Wuweizisu C, wuweizisu C], the IC50 was over 50 µM on UGT1A1; 25.2 µM on CYP2E1 (setting [1]); over 50 µM at CYP2E1 (setting [2]); 20.3 µM on CYP2D6 (IC50 RI, reversible inhibition); 28.2 µM against CYP2D6 (setting [3]); over 50 µM at UGT1A9. Moreover, the half-maximal inhibitory concentration (IC50) at CYP2B6 (setting [4]) amounted to 1.4 µM; at CYP2B6 (setting [5]), 2.9 µM; at CYP1A2 (setting [6]), 22.4 µM; on CYP1A2 (setting [7]) it was 25.6 µM; on CYP2C19 (IC50 RI, reversible inhibition) it was 2.7 µM; against CYP2C19 (setting [3]), 1.5 µM.
